In patent US20170305943A1, “COMPOUNDS FOR THE TREATMENT OF BACTERIAL INFECTIONS” (priority 2014, published 2017):
In brackets after ≈: the same amount, converted by molar mass.

Tested on: Clostridium difficile (Isolate ID ATCC 9689)
Test: Bacterial Assay: Determination of Antibacterial Activity (MIC, broth microdilution or agar dilution)
Type: cell-based
Conditions: Clostridioides difficile, ATCC9689, 48 h, read-out: C. difficile MIC Activity Range
Description: Bacterial Assay: Determination of Antibacterial Activity Compounds of the invention were tested for antimicrobial activity by susceptibility testing in liquid or on solid media. Minimum inhibitory concentrations (MICs) for compounds against each strain were determined by the broth microdilution or agar dilution method according to the guidelines of the Clinical Laboratories and Standards Institute, formerly the National Committee for Clinical Laboratory Standards (Clinical Laboratories and Standards Institute. Methods for Dilution Antimicrobial Susceptibility Tests for Bacteria That Grow Anaerobically; Approved Standard-Seventh Edition. Document M11-A7, CLSI, Wayne, Pa., 2007, Clinical Laboratories and Standards Institute). Briefly MICs were determined by visible inspection after 48 hours of growth in the presence of compounds, cultures were grown at 37° C. in anaerobic gas packs using reinforced clostridial medium supplemented with 0.1% defribrinated horse blood. The bacterial strains tested include C. difficile (Clostridium difficile (Isolate ID ATCC 9689)) (Table 2) and two drug resistant clinical isolates (Clostridium difficile (Isolate ID BI-9) and Clostridium difficile (Isolate ID 027-01) (Table 3).
MICs were determined to be within the activity ranges “A” activity≦1.01 μg/mL; “B” activity>1.0 μg/mL-4.0 μg/mL; “C” activity>4.0 μg/mL-16 μg/mL

SMILES	MIC
Cn1ccc(CNC(=O)OCC(Oc2ccc(F)c(C(N)=O)c2F)c2nc(-c3ccc(C(F)(F)F)cc3)c(Br)o2)n1 (centres unmarked) [Compound 72, 2-{5-bromo-4-[4-(trifluoromethyl)phenyl]-1,3-oxazol-2-yl}-2-(3-carbamoyl-2,4-difluorophenoxy)ethyl [(1-methyl-1H-pyrazol-3-yl)methyl]carbamate]	< 1.01 µg/mL
Cn1nccc1CNC(=O)OCC(Oc1ccc(F)c(C(N)=O)c1F)c1nc(-c2ccc(C(F)(F)F)cc2)c(Br)o1 (centres unmarked) [Compound 73, 2-{5-bromo-4-[4-(trifluoromethyl)phenyl]-1,3-oxazol-2-yl}-2-(3-carbamoyl-2,4-difluorophenoxy)ethyl [(1-methyl-1H-pyrazo1-5-yl)methyl]carbamate]	< 1.01 µg/mL
CN(Cc1ccncn1)C(=O)OCC(Oc1ccc(F)c(C(N)=O)c1F)c1nc(-c2ccc(C(F)(F)F)cc2)c(Br)o1 (centres unmarked) [Compound 75, 2-{5-bromo-4-[4-(trifluoromethyl)phenyl]-1,3-oxazol-2-yl}-2-(3-carbamoyl-2,4-difluorophenoxy)ethyl methyl(pyrimidin-4-ylmethyl)carbamate]	1 to 4 µg/mL (≈ 1.52 to 6.09 µM)
Cn1cc(CNC(=O)OCC(Oc2ccc(F)c(C(N)=O)c2F)c2nc(-c3ccc(C(F)(F)F)cc3)c(Br)o2)cn1 (centres unmarked) [Compound 76, 2-{5-bromo-4-[4-(trifluoromethyl)phenyl]-1,3-oxazol-2-yl}-2-(3-carbamoyl-2,4-difluorophenoxy)ethyl [(1-methyl-1H-pyrazol-4-yl)methyl]carbamate]	< 1.01 µg/mL
Cc1cccc(CNC(=O)OCC(Oc2ccc(F)c(C(N)=O)c2F)c2nc(-c3ccc(C(F)(F)F)cc3)c(Br)o2)n1 (centres unmarked) [Compound 77, 2-{5-bromo-4-[4-(trifluoromethyl)phenyl]-1,3-oxazol-2-yl}-2-(3-carbamoyl-2,4-difluorophenoxy)ethyl [(6-methylpyridin-2-yl)methyl]carbamate]	1 to 4 µg/mL (≈ 1.53 to 6.1 µM)
Cc1cc(CNC(=O)OCC(Oc2ccc(F)c(C(N)=O)c2F)c2nc(-c3ccc(C(F)(F)F)cc3)c(Br)o2)ccn1 (centres unmarked) [Compound 78, 2-{5-bromo-4-[4-(trifluoromethyl)phenyl]-1,3-oxazol-2-yl}-2-(3-carbamoyl-2,4-difluorophenoxy)ethyl [(2-methylpyridin-4-yl)methyl]carbamate]	< 1.01 µg/mL
Cn1ccnc1CNC(=O)OCC(Oc1ccc(F)c(C(N)=O)c1F)c1nc(-c2ccc(C(F)(F)F)cc2)c(Br)o1 (centres unmarked) [Compound 79, 2-{5-bromo-4-[4-(trifluoromethyl)phenyl]-1,3-oxazol-2-yl}-2-(3-carbamoyl-2,4-difluorophenoxy)ethyl [(1-methyl-1H-imidazol-2-yl)methyl]carbamate]	4 to 16 µg/mL (≈ 6.21 to 24.8 µM)
Cc1nn(C)cc1CNC(=O)OCC(Oc1ccc(F)c(C(N)=O)c1F)c1nc(-c2ccc(C(F)(F)F)cc2)c(Br)o1 (centres unmarked) [Compound 81, 2-{5-bromo-4-[4-(trifluoromethyl)phenyl]-1,3-oxazol-2-yl}-2-(3-carbamoyl-2,4-difluorophenoxy)ethyl [(1,3-dimethyl-1H-pyrazol-4-yl)methyl]carbamate]	< 1.01 µg/mL
Cc1c(CNC(=O)OCC(Oc2ccc(F)c(C(N)=O)c2F)c2nc(-c3ccc(C(F)(F)F)cc3)c(Br)o2)cnn1C (centres unmarked) [Compound 82, 2-{5-bromo-4-[4-(trifluoromethyl)phenyl]-1,3-oxazol-2-yl}-2-(3-carbamoyl-2,4-difluorophenoxy)ethyl [(1,5-dimethyl-1H-pyrazol-4-yl)methyl]carbamate]	< 1.01 µg/mL
COc1ccc(CNC(=O)OCC(Oc2ccc(F)c(C(N)=O)c2F)c2nc(-c3ccc(C(F)(F)F)cc3)c(Br)o2)cn1 (centres unmarked) [Compound 83, 2-{5-bromo-4-[4-(trifluoromethyl)phenyl]-1,3-oxazol-2-yl}-2-(3-carbamoyl-2,4-difluorophenoxy)ethyl [(6-methoxypyridin-3-yl)methyl]carbamate]	< 1.01 µg/mL
COc1cc(CNC(=O)OCC(Oc2ccc(F)c(C(N)=O)c2F)c2nc(-c3ccc(C(F)(F)F)cc3)c(Br)o2)ccn1 (centres unmarked) [Compound 84, 2-{5-bromo-4-[4-(trifluoromethyl)phenyl]-1,3-oxazol-2-yl}-2-(3-carbamoyl-2,4-difluorophenoxy)ethyl [(2-methoxypyridin-4-yl)methyl]carbamate]	< 1.01 µg/mL
Cn1c(CNC(=O)OCC(Oc2ccc(F)c(C(N)=O)c2F)c2nc(-c3ccc(C(F)(F)F)cc3)c(Br)o2)nc2ccccc21 (centres unmarked) [Compound 85, 2-{5-bromo-4-[4-(trifluoromethyl)phenyl]-1,3-oxazol-2-yl}-2-(3-carbamoyl-2,4-difluorophenoxy)ethyl [(1-methyl-1H-benzimidazol-2-yl)methyl]carbamate]	1 to 4 µg/mL (≈ 1.44 to 5.76 µM)
Cc1ccc(CNC(=O)OCC(Oc2ccc(F)c(C(N)=O)c2F)c2nc(-c3ccc(C(F)(F)F)cc3)c(Br)o2)n1C (centres unmarked) [Compound 86, 2-{5-bromo-4-[4-(trifluoromethyl)phenyl]-1,3-oxazol-2-yl}-2-(3-carbamoyl-2,4-difluorophenoxy)ethyl [(1,5-dimethyl-1H-pyrrol-2-yl)methyl]carbamate]	1 to 4 µg/mL (≈ 1.52 to 6.08 µM)
Cc1cc(CNC(=O)OCC(Oc2ccc(F)c(C(N)=O)c2F)c2nc(-c3ccc(C(F)(F)F)cc3)c(Br)o2)n(C)n1 (centres unmarked) [Compound 87, 2-{5-bromo-4-[4-(trifluoromethyl)phenyl]-1,3-oxazol-2-yl}-2-(3-carbamoyl-2,4-difluorophenoxy)ethyl [(1,3-dimethyl-1H-pyrazol-5-yl)methyl]carbamate]	1 to 4 µg/mL (≈ 1.52 to 6.08 µM)
Cc1cc(CNC(=O)OCC(Oc2ccc(F)c(C(N)=O)c2F)c2nc(-c3ccc(C(F)(F)F)cc3)c(Br)o2)nn1C (centres unmarked) [Compound 88, 2-{5-bromo-4-[4-(trifluoromethyl)phenyl]-1,3-oxazol-2-yl}-2-(3-carbamoyl-2,4-difluorophenoxy)ethyl [(1,5-dimethyl-1H-pyrazol-3-yl)methyl]carbamate]	1 to 4 µg/mL (≈ 1.52 to 6.08 µM)
Cc1ccc(CNC(=O)OCC(Oc2ccc(F)c(C(N)=O)c2F)c2nc(-c3ccc(C(F)(F)F)cc3)c(Br)o2)cn1 (centres unmarked) [Compound 89, 2-{5-bromo-4-[4-(trifluoromethyl)phenyl]-1,3-oxazol-2-yl}-2-(3-carbamoyl-2,4-difluorophenoxy)ethyl [(6-methylpyridin-3-yl)methyl]carbamate]	< 1.01 µg/mL
Cc1ncccc1CNC(=O)OCC(Oc1ccc(F)c(C(N)=O)c1F)c1nc(-c2ccc(C(F)(F)F)cc2)c(Br)o1 (centres unmarked) [Compound 90, 2-{5-bromo-4-[4-(trifluoromethyl)phenyl]-1,3-oxazol-2-yl}-2-(3-carbamoyl-2,4-difluorophenoxy)ethyl [(2-methylpyridin-3-yl)methyl]carbamate]	< 1.01 µg/mL
Cc1cnccc1CNC(=O)OCC(Oc1ccc(F)c(C(N)=O)c1F)c1nc(-c2ccc(C(F)(F)F)cc2)c(Br)o1 (centres unmarked) [Compound 91, 2-{5-bromo-4-[4-(trifluoromethyl)phenyl]1,3-oxazol-2-yl}-2-(3-carbamoyl-2,4-difluorophenoxy)ethyl [(3-methylpyridin-4-yl)methyl]carbamate]	< 1.01 µg/mL
NC(=O)c1c(F)ccc(OC(COC(=O)NCCn2ccccc2=O)c2nc(-c3ccc(C(F)(F)F)cc3)c(Br)o2)c1F (centres unmarked) [Compound 92, 2-{5-bromo-4-[4-(trifluoromethyl)phenyl]-1,3-oxazol-2-yl}-2-(3-carbamoyl-2,4-difluorophenoxy)ethyl [2-(2-oxopyridin-1(2H)-yl)ethyl]carbamate]	1 to 4 µg/mL (≈ 1.49 to 5.96 µM)
NC(=O)c1c(F)ccc(OC(CO)c2nc(-c3ccc(F)cc3F)c(Br)o2)c1F (centres unmarked) [Compound 99, 3-{1-[5-bromo-4-(2,4-difluorophenyl)-1,3-oxazol-2-yl]-2-hydroxyethoxy}-2,6-difluorobenzamide]	< 1.01 µg/mL
